According to ChEMBL document CHEMBL5257032, “Therapeutic potential of coumarins as antiviral agents” (Eur J Med Chem, 2016):
Values after ≈ are worked out from the molar mass of the structure shown.

Tests used:
Semliki Forest virus = experiment: Antiviral activity against SFV; format: functional, organism-based
Chikungunya virus [1] = experiment: Antiviral activity against CHIKV virus by CHIKV-Rluc assay; format: functional, organism-based
Herpesviridae sp. = experiment: Antiviral activity against Kaposi's sarcoma-associated herpesvirus; format: functional, organism-based
Human alphaherpesvirus 1 [2] = experiment: Antiviral activity against Herpes simplex virus 1 assessed as inhibition rate at 10 ug/ml relative to control; format: functional
Human alphaherpesvirus 1 [3] = experiment: Antiviral activity against Herpes simplex virus 1 assessed as inhibition rate at 5 ug/ml relative to control; format: functional
Human alphaherpesvirus 1 [4] = experiment: Antiviral activity against Herpes simplex virus 1; format: functional, organism-based
Human alphaherpesvirus 1 [5] = experiment: Antiviral activity against Herpes simplex virus 1 assessed as inhibition rate at 2.5 ug/ml relative to control; format: functional
Chikungunya virus [6] = experiment: Antiviral activity against CHIKV; format: functional, organism-based
[7] = Selectivity index, ratio of CC50 for cytotoxicity against human Ava5 cells to EC50 for antiviral activity against HCV; format: toxicity, cell-based; conditions: read-out: Ratio CC50/EC50
Human alphaherpesvirus 2 = experiment: Antiviral activity against Herpes simplex virus 2; format: functional, organism-based
Hepatitis B virus = experiment: Antiviral activity against HBV; format: functional, organism-based

## CCN(CC)c1ccc2cc(-c3nc4ccccc4n3C)c(=O)oc2c1
Semliki Forest virus
  IC50: 0.4 µM
Chikungunya virus [1]
  IC50: 6.4 µM

## C=CC(C)(C)c1cc2cc3c(cc2oc1=O)OC(C(C)(C)OC(C)=O)C3 (configuration not stated) [RUTAMARIN]
Herpesviridae sp.
  EC50: 1.62 µM

## CC(=O)O[C@@H]1CC[C@]2(C)[C@H](CC[C@](C)(O)[C@@H]2COc2ccc3ccc(=O)oc3c2)C1(C)C
Human alphaherpesvirus 1 [2]
  inhibition at 10 µg/mL: 98%
Human alphaherpesvirus 1 [3]
  inhibition at 5 µg/mL: 80%
Human alphaherpesvirus 1 [4]
  EC50: 38 µg/mL (≈ 85.9 µM)
Human alphaherpesvirus 1 [5]
  inhibition at 2.5 µg/mL: 65%

## CCN(CC)c1ccc2cc(C(=O)c3ccsc3)c(=O)oc2c1
Chikungunya virus [6]
  IC50: 5.1 µM

## COc1cc(NCc2cc3ccccc3oc2=O)cc(OC)c1OC
[7]
  selectivity ratio: 10

## COC1=CC(=O)c2cc(C)cc(-c3c(OC)cc(OC)c4ccc(=O)oc34)c2C1=O
Human alphaherpesvirus 2
  EC50: 10 µg/mL (≈ 24.6 µM)
Human alphaherpesvirus 1 [4]
  EC50: 10 µg/mL (≈ 24.6 µM)

## COc1c(OC/C=C(\C)CCC=C(C)C)ccc2ccc(=O)oc12 [COLLININ]
Hepatitis B virus
  IC50: 17.1 µg/mL (≈ 52.1 µM)
